One substance from patent US10874733B2 (priority 2016, dated 2020) can be followed below.

What all share (assay type): physicochemical
Data set [1] can be described thus: Liposome size by dynamic light scattering (hydrodynamic size). The conditions noted are these: for Liposome size (d, nm): DMPC:DOTAP liposome. The method, then: 1 mL of each of the sample of the lipid dissolution step and 1 mL of a sample obtained by simply mixing the glycolipid of Preparation Example 2-(3) with liposome were added to a cuvette, and a hydrodynamic size was measured using a dynamic light-scattering apparatus (Malvern instrument, ZSP nano) (Table 2).

A short description of data set [2]: Liposome size homogeneity (PDI, size distribution) by dynamic light scattering. Conditions: for Liposome PDI: DMPC:DOTAP liposome. The method, then:
1 mL of each of the sample of the lipid dissolution step and 1 mL of a sample obtained by simply mixing the glycolipid of Preparation Example 2-(3) with liposome were added to a cuvette, and a hydrodynamic size and distribution were analyzed using a dynamic light-scattering apparatus (Malvern instrument, ZSP nano) (Table 3, FIGS. 3 and 4). FIG. 3 is a diagram showing a liposome size distribution in a lipid-solubilization step, and FIG. 4 is a diagram showing a liposome size distribution in a step of simply mixing glycolipid with a liposome.

Data set [3] in a line: Liposome surface charge (zeta potential). Conditions: for Liposome surface charge (mV): DMPC:DOTAP liposome. As to the method: 1 mL of each of the sample of the lipid dissolution step and 1 mL of a sample obtained by simply mixing the glycolipid of Preparation Example 2-(3) with a liposome were loaded on a cuvette for measuring a surface charge (zeta potential), and a surface charge was measured using a dynamic light-scattering apparatus (Malvern instrument, ZSP nano) (Table 4).

Setting [4] is: lipid dissolution step, glycolipid content 1 mol %.
Where [5] appears, read: lipid dissolution step, glycolipid content 3 mol %.
Where [6] appears, read: step of simple mixing with liposome, glycolipid content 1 mol %.
Setting [7] is: step of simple mixing with liposome, glycolipid content 3 mol %.
[8] abbreviates: step of simple mixing with liposome, glycolipid content 6 mol %.
Setting [9] is: lipid dissolution step, glycolipid content 6 mol %.

Monophosphoryl lipid A [MPL]: the “Liposome size (d, nm)” value in data set [1] (glycolipid incorporated in lipid dissolution step, glycolipid content 6 mol %) amounted to 355.4 nm; in data set [1] (setting [4]), 367.9 nm; in data set [1] (setting [5]) it was 309.2 nm; in data set [1] (setting [6]), 694.9 nm; in data set [1] (setting [7]), 1206.1 nm; in data set [1] (setting [8]), 1538.7 nm. In data set [1] (glycolipid simply mixed with liposome), the “Change of liposome size on simple mixing with a liposome” value is reported as “tended to increase in size”. Further, the “Liposome PDI” value in data set [2] (setting [4]) was 0.353; in data set [2] (setting [5]), 0.412; in data set [2] (setting [9]), 0.405; in data set [2] (setting [6]), 0.552; in data set [2] (setting [7]) it was 0.793; in data set [2] (setting [8]), 0.887. In addition, the Liposome size distribution result is recorded as “not uniform” in data set [2] (glycolipid incorporated during lipid dissolution (encapsulated liposome), FIG. 3) and “not uniform” in data set [2] (simple mixing of liposome with glycolipid (adsorbed liposome), FIG. 4). For the same substance, the “Dispersibility of the liposome (PDI)” value in data set [2] (over glycolipid contents 6, 3, 1 mol %) is reported as “increased depending on concentration”. The “Liposome surface charge (mV)” value in data set [3] (setting [4]) turned out to be 57.0 ± 3.0 mV; in data set [3] (setting [5]), 56.2 ± 0.6 mV; in data set [3] (setting [9]), 23.7 ± 0.6 mV; in data set [3] (setting [6]) it was 57.8 ± 1.6 mV; in data set [3] (setting [7]) it was 56.9 ± 3.4 mV; in data set [3] (setting [8]), 48.5 ± 1.4 mV. Further, the Surface charge change result in data set [3] (mixed at a high content of 6 mol %) is given as “decreased sharply”.
